Laboratory results from patent publication US12687540B2, “Amyloid-binding compounds and methods of use thereof” (Vanderbilt University, priority 2019, dated 2026).
Read-outs that look alike come from different tables or passages of the source. One block for each compound: values may come before it.

What was measured:
[1] = target: T1, endogenous amyloid-β (Abeta) plaques in the 5XFAD brain lysate (Homo sapiens, UniProt P05067); experiment: HATCO assay (high-throughput amyloid Thioflavin competitive binding optical assay), thioflavin-T fluorescence readout; parameters: species or system 5XFAD mice; settings: for IC50: competition with thioflavin-T for Abeta in 5XFAD brain lysate, 384-well, 4-parameter fit
T1 construct: coexpressed five familial AD (FAD) and additively increase Abeta-42 production; from tissue; host or cells: midbrain lysate (supernatant) of 8-month-old 5XFAD transgenic mice
Source text: However, when bound to Abeta plaque, its FL increases dramatically and results in a strong FL signal with a characteristically shifted λmax to approximately 485 nm. In view thereof, as opposed to existing methods that detect binding of the dye through increased fluorescence, the present methods identify amyloid-binding compounds through a lack of binding between the dye and the amyloid, as evidenced by attenuated fluorescence. […] Accordingly, in some embodiments, the method of screening includes combining the target compound(s) with a dye (e.g., Thioflavin-T) and endogenous amyloid (e.g., endogenous amyloid-β (Abeta) plaques in the 5XFAD brain lysate), then measuring the fluorescence of the combination. In some embodiments, the fluorescence of the combination is then compared to negative and/or positive control.
HATCO competitive binding study. […] To facilitate the generation of concentration-response curves, fluorescence at each data point was averaged on a compound-by-compound basis and plotted as a function of concentration. […] From this curve, IC50 values for each compound were calculated by fitting the data to a 4-parameter logistical model in the GraphPad software package.
Brain lysate preparation—Excised midbrains of 5XFAD (8-month-old) or wt mice (age-matched) were homogenized for 5 min in 200 μL of buffer comprised of 21.4 g sucrose, 5 mL of 1 M tris base, and 0.5 mL of 0.5 M EDTA/250 mL DPBS using the T-25 basic Ultra-Turrax homogenizer. Additional 100 μL aliquots of this buffer were then added to the homogenized sample and re-homogenized for 2 min until a total added volume of 800 μL was attained. The sample was diluted to 4 mL total volume using another buffer comprised of 5% BSA, and 0.03% Tween 20 in DPBS solution. Roche Complete protease inhibitor tablets were added to both buffers immediately prior to use (1 tablet/10 mL buffer). The sample was centrifuged at 16,000 g for 30 min at 4° C. Aliquots of the supernatant were stored at −80° C. until use.
HATCO HTS assay—To translate the assay initially performed on a cuvette to a 384-well format, the general protocol includes the following steps: A fresh stock solution of thioflavin-T was prepared in distilled and deionized water after passing through a micro filter. The concentration of […] was measured according to Beer's law with an extinction coefficient of 26,620 M^−1cm^−1 at 416 nm. The stock solution was stored in darkness using aluminum foil and kept at 4° C. throughout the assay. Unless stated, each assaying well contained 10 μM of thioflavin-T, 5 mg/mL of freshly isolated and homogenized brain lysate (5 μL) obtained from 5XFAD mice and with 30 μM of screening compounds. […] For the negative control, the wells contained the same components minus positive control. The protein concentration of brain lysate throughout the study was normalized. After equilibration for 10 min at room temperature, the FL signal of the sample was measured using a Biotek Synergy NEO plate reader at an emission lambda max of 485 nm using an excitation of 465 nm and the signals of the different conditions were analyzed. The final volume per well was 50 μL. All assays were performed using a single dose of screening compounds in triplicate.
Once the preliminary hit compounds were identified, a cross-screening protocol was employed to validate the hits with duplicated concentrations for each hit.

[2] = tested on: Abeta plaques; experiment: Autoradiography of human brain tissues from Alzheimer's disease patients with [11C]promethazine PET probe; format: binding; settings: human AD brain tissue sections soaked in probe in PBS; compared with a large excess of cold promethazine
Source text: (A) Tissues ([…]) on glass slides were soaked in [^11C]promethazine PET probe diluted in PBS solution. (B) Tissues were soaked in the same solution as (A), albeit with the presence of a large excess of “cold” (unlabeled) promethazine, denoted as PMZ in the figure.

[3] = mouse, in vivo
Procedure: In the HPLC experiment, WT and 5XFAD mice (n=3, each) were injected with promethazine via the tail veins, and subsequently perfused 10 min or 4 h post-injection. Freshly isolated brains were homogenized to facilitate extraction and quantification via HPLC using the procedure we reported earlier.

T1 sequence (P05067 672-713 limits assumed): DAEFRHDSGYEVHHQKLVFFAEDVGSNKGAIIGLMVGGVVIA

IC50 [1]: 74.3 µM
Compound: Nc1ccc(/N=N/c2ccccc2)c(N)n1 [VU0244402, 3-Phenylazo-pyridine-2,6-diamine]

IC50 [1]: 68.1 µM
Compound: O=C(O)c1cc(/N=N/c2ccc(S(=O)(=O)Nc3ccccn3)cc2)ccc1O [VU0243360, 2-Hydroxy-5-[4-(pyridine-2-ylsulfamoyl)-phenylazo]-benzoic acid]

IC50 [1]: 61.2 µM
Compound: O=C(N/N=C/c1ccc([N+](=O)[O-])o1)c1cc([N+](=O)[O-])cc([N+](=O)[O-])c1O [VU0656139, 2-Hydroxy-3,5-dinitro-benzoic acid (5-nitro-furan-2-ylmethylene)-hydrazide]

Further lines, the compound ahead of its results:

Compound: 1,6,7,1′,6′,7′-Hexahydroxy-5,5′-diisopropyl-3,3′-dimethyl-[2,2′]binaphthalenyl-8,8′-dicarbaldehyde [VU0243640]
IC50 [1]: 84.2 µM

Compound: Oc1ccc(/C=C/c2cc(O)cc(O)c2)cc1 [Resveratrol, (E)-5-(4-hydroxystyryl)benzene-1,3-diol]
FL signal of thioflavin-T at 485 nm was reduced ([1]; 100 μM): 4.4% | FL signal of thioflavin-T at 485 nm was reduced ([1]; 500 μM): 25.9% | FL signal of thioflavin-T at 485 nm was reduced ([1]; 2000 μM): 51%

Compound: CC(CN1c2ccccc2Sc2ccccc21)N(C)C (centres unmarked) [[^11C]promethazine]
binding to Abeta plaques by autoradiography [2]: bound to Abeta plaques

Compound: O=C1C(Cl)=C(Cl)C(=O)C(Cl)=C1Cl [VU0243635, 2,3,5,6-Tetrachloro-[1,4]benzoquinone]
IC50 [1]: 90.8 µM

Compound: CC(CN1c2ccccc2Sc2ccccc21)N(C)C (centres unmarked) [Promethazine, N,N-dimethyl-1-(10H-phenothiazin-10-yl)propan-2-amine]
IC50 [1]: 53.6 µM | increase in promethazine retention in Aβ-burdened brains (5XFAD vs WT) ([3]; 5XFAD versus WT, 10 min): ~4 fold | level of promethazine measured in brain (mean) ([3]; 5XFAD, 10 min): 9.62 µg | original dose retained within the brain ([3]; 5XFAD, 10 min): 2% | original dose retained within the brain ([3]; 5XFAD, 240 min): 0.5% | level of promethazine measured in brain (mean) ([3]; 10 min): 2.57 µg | original dose retained within the brain ([3]; 10 min): 0.5% | original dose retained within the brain ([3]; 240 min): 0.01%
